These results are taken from patent US8653304B2, “2,3-dihydro-1H-indene-2-yl urea derivative and pharmaceutical application of same” (Toray Industries, Inc., priority 2009, dated 2014).

What all share (type): in vivo
Experiment [1] relates to TNFα production. As to the kind of experiment: Mouse LPS-induced cytokine production model. The settings on record: BALB/c mouse, 50 mg/kg oral 30 minutes before LPS 1 mg/kg i.p., serum 60 minutes after LPS. The protocol: The action of Compound (I) on the TNFα production induced by LPS administration in a mouse was studied by a method partially modified from the method described in Journal of Immunology (1992, Vol. 148, pp. 1890-1897).
To each BALB/c mouse (male, 7 to 9-week old, Charles River Laboratories Japan, Inc.), LPS (0111:B4, SIGMA) was intraperitoneally administered at a dose of 1 mg/kg. Sixty minutes after the LPS administration, blood was collected from the abdominal vena cava under anesthesia and centrifuged for 15 minutes at 4° C. to obtain a serum. For the measurement of TNF-α in the serum, ELISA Development System (R&D Systems) was used. Each test compound was dissolved in DMSO (Final Concentration: 2%), and then the obtained solution was dissolved in a 27% aqueous solution of 2-hydroxypropyl-β-cyclodextrin (hereinafter referred to as “HP-β-CD”; Nihon Shokuhin Kako Co., Ltd.). Thirty minutes before the LPS administration, the resulting solution was orally administered at 50 mg/kg.

Experiment [2] relates to skin swelling response in type I allergic dermatitis model. As to the kind of experiment: Skin swelling response in type I allergic dermatitis model. The settings on record: BALB/c mouse, 20 μL of 0.5 w/v % solution applied to auricle 1 hour before induction. From the text:
The action of Compound (I) on skin swelling response in mouse allergic dermatitis models was studied. As the allergic dermatitis models, models partially modified from a type I allergic dermatitis model and a type IV allergic dermatitis model described in documents (Inflamm. Res., 1998, Vol. 47, pp. 506-511 and Int. Arch. Allergy. Appl. Immunol., 1990, Vol. 92, pp. 356-360) were used.
To each BALB/c mouse (female, 7-week old, Charles River Laboratories Japan, Inc.), mouse IgE anti-DNP antibody (0.05 mg/body, […] CORPORATION) was intravenously administered to passively sensitize the mouse. Twenty four hours after the sensitization, 20 μL of 0.38% DNFB (SIGMA) dissolved in acetone:olive oil (4:1) was applied to the auricle of the mouse to induce inflammation. From after the induction to 24 hours, the thickness of the auricle was measured with time using a Digimatic Indicator (Mitutoyo). Each test compound was dissolved in ethanol, and 20 μL of 0.5 w/v % solution was applied to the auricle at 1 hour before the induction.
The swelling ratio of the auricle was calculated according to the following equation. […] Auricular Swelling Ratio(%)=(A−B)/B×100

Experiment [3] has as its system colonic disorders in DSS-induced chronic colitis model. As to the kind of experiment: Colonic disorders in DSS-induced chronic colitis model. Conditions: BALB/c mouse, oral 10 mg/kg once Day 27, twice a day Day 28-31; scores Day 28-32. From the text: The action of Compound (I) on colonic disorders in inflammatory bowel disease models was studied. As the inflammatory bowel disease models, models partially modified from a TNBS-induced colitis model and a DSS-induced chronic colitis model described in documents (Gastroenterology, 1989, Vol. 96, pp. 29-36 and Am. J. Physiol. Gastrointest. Liver Physiol., 2004, Vol. 287, pp. G115-124) were used.
To each BALB/cCrSlc mouse (female, 9-week old, Japan SLC, Inc.), DSS (Molecular Weight: 36-50 kDa; MP Biomedicals) dissolved in sterile ultrapure water was administered via free drinking for 5 days from the day of the start of the administration via drinking water (this day was considered as Day 0 after the start of the administration via drinking water), and then switched to administration of sterile ultrapure water via free drinking for 5 days. This cycle was repeated again, and DSS was further administered via free drinking for another 7 days to produce the colitis model. As an index of colitis symptoms, stool consistency scores were used. The stool consistency scores were based on the following criteria: normal stool was defined as score 0; loose stool was defined as score 2; and diarrhea was defined as score 4. […]

Experiment [4] relates to hyperalgesia in Chung model. As to the kind of experiment: Hyperalgesia in neuropathic pain model (Chung model), plantar test. The settings on record: SD rat, Chung model day 15, oral 100 mg/kg, 90 minutes after administration; FIG. 3. From the text: The action of Compound (I) on hyperalgesia in pain models was studied. As the pain models, models partially modified from an inflammatory pain model (a carrageenin paw edema pain model) and neuropathic pain models (Bennett model and Chung model) described in documents (Anesth. Analg., 2009, Vol. 108, pp. 1680-1687; Pain, 1988, Vol. 33, pp. 87-107; and Pain, 1992, Vol. 50, pp. 355-363) were used.
The Bennett model was produced by lightly ligating the sciatic nerve in the left thigh of each Crl:CD (SD) rat (male, 6-week old, Charles River Laboratories Japan, Inc.) at 4 points with chromic catgut (4-0). Fourteen days after the Bennett model was produced, each test compound was orally administered, and plantar test was performed 90 minutes after the administration. The plantar test was carried out by measuring the pain threshold (sec) of the left footpad (model foot) using a plantar thermal stimulation device (Plantar test 7370, Ugo Basile) wherein the thermal stimulus intensity was set to 60. Each test compound was suspended in 0.5 w/v % methylcellulose (Wako Pure Chemical Industries, Ltd.) and the obtained solution was orally administered. Compound 46b described in the Examples was administered at a dose of 100 mg/kg, and gabapentin (Toronto Research Chemicals), which is an anticonvulsant, was administered as a comparative control agent at a dose of 100 mg/kg. […]

Each structure is given as a SMILES string.

For the molecule `COc1c(NC(=O)N[C@@H]2Cc3ccccc3[C@@H]2O)cc(C(C)(C)C)cc1[C@@H](O)C(F)(F)F` [Compound 46b, 1-(5-tert-butyl-2-methoxy-3-((R)-2,2,2-trifluoro-1-hydroxyethyl)phenyl)-3-((1S,2R)-1-hydroxy-2,3-dihydro-1H-indene-2-yl)urea], the “Suppression Ratio of TNFα production” value in experiment [1] worked out at 100.0%. In addition, in experiment [2], the “suppression ratio on immediate response (auricular swelling AUC 0-4 hours)” value is 94.4% and the “suppression ratio on late response (auricular swelling AUC 5-10 hours)” value amounted to 93.1%. Also, in experiment [3], the “stool consistency score (total)” value was 5.7±0.8. Moreover, the “pain threshold (sec), plantar test, compared to solvent-administered group” value in experiment [4] is “significantly elevated”.
